Format in all cases: in vivo
The test system of assay [1] is Cabbage Looper [Trichoplusia ni (Hubner)]. The assay is described as follows: Cabbage looper test (CL). Particulars: second-instar larvae, 3-5 days, percent in solution.
The subject of assay [2] is Tobacco Budworm [Heliothis virescens (Fabricius)] eggs. The assay is described as follows: Tobacco budworm egg test (TBW-E). Particulars: percent in solution.
The subject of assay [3] is Maize weevil [Sitophilus Zeamais (Motschulsky)]. Put plainly: Maize weevil test (MW). Conditions: adult weevils, treated corn seeds, 48 hours, percent in solution. The procedure: The compounds in Tables 1 and 2 above were tested for insecticidal activity using the following testing procedures. LC50 values, based on the results of these tests and calculated according to dosage-mortality curves, are expressed in Table 3.
Maize weevil [Sitophilus Zeamais (Motschulsky)]
Test compounds were diluted in a 50:50 acetone:water solution. Four corn seeds [Zea mays (L.)] which had been immersed in test solutions for 2-3 seconds and allowed to dry were placed in containers together with 10 adult weevils. The containers were covered and kept at a temperature of about 25° C. Mortality was recorded after 48 hours. Test concentrations ranged from 0.01% down to that at which 50% mortalilty occurred. The LC50 values are expressed below in Table 3 under the heading "MW" in terms of percent of the test compound in solution.

Assay [4] has as its system Housefly [Musca domestica]. Put plainly: Housefly insecticidal test (HF). Particulars: per 25 female houseflies, 48 hours.

The structures appear in SMILES notation.

Consider `COc1ccc(N=C(OCc2ccc(F)c(Oc3ccccc3)c2)C(C)C)cc1F` [Compound 435], for which, in assay [1], the “LC50 CL” value is 0.002%. In assay [2], the “LC50 TBW E” value is given as 0.04%. In assay [3], the “LC50 MW” value was more than 0.01%. The “LC50 HF” value in assay [4] is less than 100 µg.
For `C=C(C)C(=Nc1ccc(F)c(Cl)c1)OCc1cccc(Oc2ccccc2)c1` [Compound 417], in that order: 0.0008%, 0.04%, less than 0.01% and less than 100 µg.
The matching figures for `CC(C)C(=Nc1ccc(C#N)cc1)OCc1ccc(F)c(Oc2ccc(Cl)cc2)c1` [Compound 392]: 0.00034%, 0.039%, more than 0.01% and less than 100 µg.
For `CC(C)(C)C(=Nc1cccc(C(F)(F)F)c1)OCc1cccc(Oc2ccccc2)c1` [Compound 88], in that order: 0.018%, more than 0.1%, more than 0.01% and more than 100 µg.
With `Cc1cc(N=C(OCc2ccc(F)c(Oc3ccc(Cl)cc3)c2)C(C)C)ccc1F` [Compound 399], the “LC50 CL” value in assay [1] is reported as 0.0012%. Further, in assay [2], the “LC50 TBW E” value was found to be 0.025%. Further, in assay [3], the “LC50 MW” value was more than 0.01%. Also, the “LC50 HF” value in assay [4] was less than 100 µg.
`C=C(C)C(=Nc1ccc(F)c(Cl)c1)OCc1ccc(F)c(Oc2ccccc2)c1` [Compound 416]: in assay [1], the “LC50 CL” value is listed as 0.00027%. In assay [2], the “LC50 TBW E” value was 0.018%. Besides, the “LC50 MW” value in assay [3] is reported as more than 0.01%. In addition, the “LC50 HF” value in assay [4] was less than 100 µg.
For `CC(C)C(=Nc1ccc(F)c(Br)c1)OCc1ccc(F)c(Oc2ccc(Cl)cc2)c1` [Compound 379], in that order: 0.00075%, 0.02%, more than 0.01% and less than 100 µg.
For `CC(C)C(=Nc1cccc(Cl)c1)OCc1ccc(F)c(Oc2ccc(Cl)cc2)c1` [Compound 390], in that order: 0.0021%, 0.045%, more than 0.01% and less than 100 µg.
The matching figures for `CC(C)C(=Nc1c(F)c(F)cc(F)c1F)OCc1cccc(Oc2ccc(F)cc2)c1` [Compound 304]: 0.0024%, more than 0.1%, more than 0.01% and more than 100 µg.
As to `CC(C)C(=Nc1ccc(I)c(Cl)c1)OCc1ccc(F)c(Oc2ccc(F)cc2)c1` [Compound 385], the “LC50 CL” value in assay [1] is listed as more than 0.1%. Also, in assay [2], the “LC50 TBW E” value is more than 0.1%. In addition, the “LC50 MW” value in assay [3] was more than 0.01%. The “LC50 HF” value in assay [4] was less than 100 µg.
Consider `CC(C)C(=Nc1ccc(F)c(Br)c1)OCc1cccc(Oc2ccccc2)n1` [Compound 558], for which the “LC50 CL” value in assay [1] was determined as 0.00045%. In addition, the “LC50 TBW E” value in assay [2] was more than 0.1%. Further, the “LC50 MW” value in assay [3] is reported as more than 0.01%. Besides, the “LC50 HF” value in assay [4] is less than 100 µg.
For `CC(C)C(=Nc1cccc(OC(F)(F)F)c1)OCc1ccc(F)c(Oc2ccccc2)c1` [Compound 437], in that order: 0.00075%, 0.025%, more than 0.01% and less than 100 µg.
For `Cc1cccc(N=C(OCc2ccc(F)c(Oc3ccc(Cl)cc3)c2)C(C)C)c1` [Compound 401], in that order: 0.0017%, 0.04%, more than 0.01% and less than 100 µg.
As to `CC(C)C(=Nc1ccc(F)c(Cl)c1F)OCc1ccc(F)c(Oc2ccc(Cl)cc2)c1` [Compound 395], the “LC50 CL” value in assay [1] is given as less than 0.1%. For the same compound, the “LC50 TBW E” value in assay [2] was 0.018%. Moreover, the “LC50 MW” value in assay [3] was determined as 0.004%. Also, the “LC50 HF” value in assay [4] turned out to be 8.6 µg.
For `CC(C)C(=Nc1ccc(C(F)(F)F)cc1)OCc1cccc(Oc2ccccc2)n1` [Compound 504], in that order: 0.00025%, 0.05%, 0.01% and less than 100 µg.
For `CC(C)C(=Nc1ccc(F)c(Cl)c1)OCc1ccnc(Oc2ccccc2)c1` [Compound 510], in that order: 0.017%, more than 0.1%, more than 0.01% and 54 µg.
For `CC(C)C(=Nc1ccc(F)c(I)c1)OCc1cccc(Oc2ccc(F)cc2)c1` [Compound 449], in that order: 0.0001%, 0.025%, 0.0075% and 13 µg.
For `CC(C)C(=Nc1ccc(Cl)c(C(F)(F)F)c1)OCc1ccc(F)c(Oc2ccccc2)c1` [Compound 388], the “LC50 CL” value in assay [1] came out at 0.0012%. Further, the “LC50 TBW E” value in assay [2] is more than 0.1%. In addition, the “LC50 MW” value in assay [3] was more than 0.01%. Besides, the “LC50 HF” value in assay [4] is less than 100 µg.
For `CCCc1ccc(N=C(OCc2ccc(F)c(Oc3ccc(F)cc3)c2)C(C)C)cc1` [Compound 440], in that order: 0.002%, less than 0.1%, more than 0.01% and more than 100 µg.
For `CC(C)C(=Nc1ccc(I)c(Cl)c1)OCc1cccc(Oc2ccc(Cl)cc2)n1` [Compound 471], in that order: 0.00018%, 0.018%, more than 0.01% and less than 100 µg.
For `CC(C)C(=Nc1ccc(OCC(F)(F)F)cc1)OCc1cccc(Oc2ccccc2)c1` [Compound 423], in assay [1], the “LC50 CL” value was found to be 0.002%. Also, the “LC50 TBW E” value in assay [2] is reported as more than 0.1%. Besides, the “LC50 MW” value in assay [3] was more than 0.01%. In addition, in assay [4], the “LC50 HF” value is more than 100 µg.
The matching figures for `Cc1ccc(N=C(OCc2ccc(F)c(Oc3ccc(Cl)cc3)c2)C(C)C)cc1C` [Compound 406]: more than 0.1%, less than 0.1%, more than 0.01% and less than 100 µg.
For `CCOc1ccc(N=C(OCc2ccc(F)c(Oc3ccccc3)c2)C(C)C)cc1` [Compound 373], in that order: more than 0.1%, more than 0.1%, more than 0.01% and less than 100 µg.
The matching figures for `CC(C)C(=Nc1ccc(C(F)(F)F)cc1[N+](=O)[O-])OCc1ccc(F)c(Oc2ccccc2)c1` [Compound 445]: 0.00045%, more than 0.1%, more than 0.01% and less than 100 µg.
On to `CC(C)C(=Nc1cccc(C(F)(F)F)c1)OC(C)c1cccc(Oc2ccccc2)c1` (stereo not shown) [Compound 459], for which the “LC50 CL” value in assay [1] came to 0.008%. Besides, the “LC50 TBW E” value in assay [2] is listed as 0.1%. Also, in assay [3], the “LC50 MW” value was more than 0.01%. The “LC50 HF” value in assay [4] was more than 100 µg.
The matching figures for `Cc1ccc(Oc2cccc(COC(=Nc3ccc(C(C)(C)C)cc3)C(C)C)c2)cc1` [Compound 344]: 0.024%, more than 0.1%, more than 0.01% and more than 100 µg.
For `CC(C)C(=Nc1cc(F)c(Cl)cc1Cl)OCc1ccc(F)c(Oc2ccc(F)cc2)c1` [Compound 292], in that order: 0.00075%, 0.05%, more than 0.01% and 41 µg.
The matching figures for `CC(C)C(=Nc1cccc(C(F)(F)F)c1)OCc1cccc(Oc2ccc(Cl)cc2)n1` [Compound 477]: 0.0003%, more than 0.1%, 0.0076% and 20 µg.
As to `CCc1ccc(N=C(OCc2cccc(Oc3ccccc3)c2)C(C)(C)C)cc1` [Compound 163], the “LC50 CL” value in assay [1] was 0.004%. Moreover, in assay [2], the “LC50 TBW E” value is more than 0.1%. Moreover, in assay [3], the “LC50 MW” value is recorded as more than 0.01%. In addition, the “LC50 HF” value in assay [4] was more than 100 µg.
The matching figures for `CC(C)C(=Nc1ccc(Br)c(Br)c1)OCc1ccc(F)c(Oc2ccc(F)cc2)c1` [Compound 383]: 0.00029%, 0.038%, more than 0.01% and less than 100 µg.
For `CC(C)C(=Nc1ccc(C(F)(F)F)cc1Cl)OCc1cccc(Oc2ccc(F)cc2)c1` [Compound 427], in that order: less than 0.1%, more than 0.1%, more than 0.01% and more than 100 µg.
`CC(C)C(=Nc1ccc(Cl)cc1)OCc1cccc(Oc2ccccc2)n1` [Compound 553]: the “LC50 CL” value in assay [1] is on record as less than 0.1%. For the same compound, in assay [2], the “LC50 TBW E” value is 0.1%. For the same compound, in assay [3], the “LC50 MW” value is more than 0.01%. In assay [4], the “LC50 HF” value is less than 100 µg.
As for `CC(C)C(=Nc1ccc(OCC(F)(F)F)c(Cl)c1)OCc1cccc(Oc2ccc(Cl)cc2)c1` [Compound 421], in assay [1], the “LC50 CL” value is 0.002%. Also, the “LC50 TBW E” value in assay [2] is reported as less than 0.1%. Moreover, the “LC50 MW” value in assay [3] was more than 0.01%. Moreover, the “LC50 HF” value in assay [4] is more than 100 µg.
As to `Cc1cc(N=C(OCc2ccc(F)c(Oc3ccc(Cl)cc3)c2)C(C)C)ccc1Br` [Compound 407], in assay [1], the “LC50 CL” value is given as more than 0.1%. Further, the “LC50 TBW E” value in assay [2] was 0.05%. Further, the “LC50 MW” value in assay [3] is more than 0.01%. In addition, the “LC50 HF” value in assay [4] was more than 100 µg.

For the origin of these results see patent publication US5089623A, “Certain imidate insecticides” (Imperial Chemical Industries Plc, priority 1990, dated 1992).
